Test [1] relates to rats with ligature of coronary arteries. It is filed as in vivo, rat. Also on record: myocardial necrosis size: unit not given here.
A further test has as its system outbreed male mice. In words: Analgesic activity in vivo, tail pinch method. Also on record: species or system mouse. To be noted: for Duration of analgesic effect at ED60-80 / ED50 nmol/animal (dose interval) / Relative analgesic activity morphine = 1: intracisternal administration. The protocol: Analgesic activity of enkephalin analogues was determined by a “tail pinch” method [Ueda H.; Amano H.; Shiomi H.; Takagi H. (1979). Eur. J. Pharmacol., 56, 265-268]. […] Ten mice were used in each experiment.
The studied substances were dissolved in sterile physiological solution and injected in J-shaped needles into the brain of conscious mice at a dose of 10 μl. Control animals received 10 μl of sterile physiological solution. Intravenous administration was into the tail vein. Analgesic activity was tested by pinching the mouse tail with an artery clip with 200 g pressure. The mice who bit the clip within one second after application of pinching were selected for assays. Analgesic activity was defined as latency on the biting response greater than 6 sec. The analgesic tests were performed 5, 15, 30, 60 and 90 min after administration and then every 30 min until the analgesic reaction was stopped. The analgesic activity of the peptides was expressed as a percentage of mice not showing the biting response.

The next test deals with CD-1 male mice. In words: Analgesic activity in vivo, hot plate method. Also on record: species or system mouse. To be noted: for analgesic effect in words: hot plate. The protocol: Male Swiss albino mice (CD1), weighing 20-22 g were used throughout the study. The animals were housed in solid bottom polycarbonate cages with access to standard laboratory diet (Laboratory Rodent Diet PK-120) and tap water ad libitum, under controlled environmental conditions (temperature:18-26° C., 8 a.m. to 8 p.m. light-dark cycle). Mice were tested only once.
The Hot-plate-meter represents the thermostatic controllable, electro-heated up surface limited by transparent walls (L: 25 cm, W: 25 cm, H: 35 cm). The forward panel of the device is equipped by buttons for the control of time and a temperature mode (Columbus Instruments).
The i.v. administration was performed via tail vein as a bolus injection. The doses for all animals were calculated on the basis of the last value of the individual body weight.
The animals accurately were placed on the preheated hot plate (55±0.5° C.) after i.v. injection of saline or peptides and the latencies to first paw licking and first jumping were measured. The other behavioral reactions were ignored. The animals were removed from a hot surface after the first jumping. A cut-off time of 180 s was used to avoid tissue damage.
To evaluate the hot-plate test responses, the control latencies (t0) and test latencies (t1) were determined after injection of saline or peptides, respectively. The percentage of the maximal possible effect (% MPE) was calculated as % MPE=(t1−t0)/(t2−t0)×100, where the cut-off time (t2) was 180 s.
The latency for the first jumping is considered as the most indicative in the hot-plate test. The area under the time-response curve was calculated by methods described elsewhere (Cicero and Meyer, 1973), to assess the magnitude of antinociception (FIG. 5, see appendix).
The median analgesic dose (ED50) also has been calculated for this parameter.
In general terms: Thermal pain tests record how soon the animal reacts.

The test system of test [2] is male Sprague-Dawley rats, left coronary artery occlusion (LCAO). In words: Cardiac ischemia rat model, left coronary artery occlusion 25 min / reperfusion 120 min, infarct size. It counts as in vivo.
Test [3] shares this test system. The test is described as above. It counts as in vivo. The protocol:
Male Sprague-Dawley (CD) rats weighing 280-380 g were used throughout this study. The rats were anesthetized by i.p. administration of urethane (1-1.5 g/kg). A tracheotomy was performed, and the trachea of the animal was intubated with a cannula connected to a rodent ventilator (model UGO BASILE 7025). Body temperature was maintained at 37° C. by use of a heating pad and monitored using rectally placed temperature probes connected to a digital thermometer. Body temperature is monitored and maintained at 37±1° C.)
The femoral artery was isolated and cannulated to measure blood pressure (BP) by a BP transducer (model PN:1891-E45, DTX™, Singapore) connected with computer. Mean arterial pressure and heart rate was calculated by special software. The right femoral vein was cannulated to allow administration of peptides or saline and methylene blue dye.
A left thoracotomy was performed to expose the heart at the fifth intercostal space. The pericardium was removed and a suture was placed under the left coronary artery in the groove between the pulmonary outflow track and left ventricle. With the tubing placed on the myocardial surface, the ligature could be tightened around the left coronary artery and clamped to provide a readily reversible occlusion of blood flow. Hemodynamics and body temperature were monitored during the procedure.
The protocol of experiments conducted in urethane-anesthetized open-chest rats subjected to regional myocardial ischemia-reperfusion is illustrated in FIG. 1 (see appendix).
All animals were subjected to 25 minutes of occlusion and 2 hours of reperfusion. Several doses (0.1 μg/kg-1 μg/kg) of the peptide (4) were given 5 minutes before occlusion. The coronary artery in all rats was occluded by pulling up on the suture and clamping it with plastic tube. At 25 minutes, the clump was released and coronary artery reperfusion was allowed. The surface of the left ventricle pinks up. After 120 min of reperfusion, the ligature was again tightened to occlude the left coronary artery, and […] methylene blue dye (0.4 ml of 10% w/v in saline) was injected. Once the dye had stained the heart, except in the area at risk, clearly demarcating the total area at risk (AAR), the heart was then quickly removed from the animal and washed out in a water, and the atria, valvular material and right ventricular wall were removed leaving just the left ventricle. The left ventricle was then sectioned transversely into 2-mm slices. The area defined as normal (dyed blue) was separated from the AAR (not dyed blue), and the slices are stained by incubation in 1% 2,3,5-triphenyltetrazolium chloride in pH 7.4 buffer for 15 min at 37° C. Infarcted areas appeared whitish after 2,3,5-triphenyltetrazolium chloride staining, whereas non-infarcted, or viable, areas appeared reddish in colour. Then the slices were immersed in 10% formalin for 5 minutes for fixing.
The slices were photographed. The areas of infarct (2,3,5-triphenyltetrazolium chloride negative) and risk zone (2,3,5-triphenyltetrazolium chloride stained) for each slice are traced and digitized using a computerized planimetry technique. The areas of each region were estimated using computerized planimetry (program “ImageTool”)
The infarct area was divided by the area at risk to determine the ratio of the infarct area/area at risk. (IS/AAR). Data were presented as infarct size (IS) as a percentage of the AAR (i.e., % IS/AAR) for statistical analysis of cardioprotective effects (decreased % IS/AAR). The statistical comparison for in vivo infarct reduction was made with vehicle controls.
A dose-response curve for the cardioprotective effects of peptide (4), compared with vehicle (n=12), was produced with i.v. peptide (4) doses of 0.01 (n=6), 0.1 (n=12), 1.0 (n=12) μg/kg, and 0.005 (n=12) mg/kg administered 5 min before LCAO in a 1 ml/kg dosing volume as a bolus. […]
This is another data set of the same source.

Test [4] has as its target T1, peripheral opiate receptors, guinea pig ileum (GPI, predominantly μ-type of opioid receptor) (Cavia porcellus, UniProt A0ACM8Q262).
T1 construct: other: guinea pig ileum longitudinal muscle, electrical stimulation; GPI Relative potency, %; other: GPI assay
To be noted: [Leu^5]-enkephalin = 100.

Test [5] has as its system peripheral opiate receptors, guinea pig ileum (GPI, predominantly μ-type of opioid receptor). To be noted: ratio of relative potencies GPI to MVD.
Test [6] concerns peripheral opiate receptors, mouse vas deferens (MVD). Description: MVD bioassay, suppression of electrically induced contraction. As to the method: Brit. J. Pharmacol., 35, 10-28]. The longitudinal muscle of ileum from guinea pig of any sex (weight 350-500 g) was carefully separated from underlying circular muscle and placed into a small bath with Krebs solution at 36° C.
The solution was constantly aerated. A constant load of 0.2 g was applied to the tissue. The tissue was stimulated by means of the ring platinum electrodes by single impulses of […] duration with 0.1 Hz frequency. […] Vas deferens of mice (weight 27 to 30 g) were placed into a bath with modified Krebs solution (not containing magnesium sulphate) at 31° C. The substances under study were dissolved in distilled water. The inhibiting activity of the compounds was determined by accumulating doses, adding increasing concentrations of the compounds without washing. The activity of the preparations was expressed as IC50 in nmol/l. The results obtained in 8-10 tests were statistically processed using Student's criterion.

Test [7] has as its system BALB mice under normobaric hypoxic hypoxia. Description: Antihypoxic action, lifetime of mice under normobaric hypoxic hypoxia. It counts as in vivo, mouse. The protocol: Antihypoxic action of the new enkephalin analogue (1) was determined by the measurement of lifetime duration in mice under the normobaric hypoxic hypoxia conditions.
The experiments were conducted on BALB-bread mice weighing 20 to 22 g. The normobaric hypoxic hypoxia conditions were modelled by placing the animals in hermetic camera, containing Ca(OH)2 to absorb the excess of carbon dioxide. The substances studied were injected intraperitoneally 1 min. before the placing of animals in the hermetic camera. The peptides were used at doses 1.0 mg/kg. […] Sodium oxybutyrate at highest therapeutic dose was used as comparative compound. The lifetime was estimated as the time when the animals stopped making breathing movements.

The mark [8] stands for this setting: i.v., dose 8 μmol/kg, jump latency time (FIG. 4).
The mark [9] stands for this setting: 0.1 μg/kg i.v. 5 min before occlusion.
The mark [10] stands for this setting: 5 μg/kg i.v. 5 min before occlusion.
The mark [11] stands for this setting: intravenous administration, time point of 15 min.

These results are taken from patent US20100093643A1 (priority 2006, published 2010).

Where two headings read alike, the source gives them in different places. Square brackets hold non-standard residues; d marks the D form. Ends that are not written are not given here. Phe(4-NO2) = N[C@@H](Cc1ccc([N+](=O)[O-])cc1)C(=O)O; dDab = NCC[C@@H](N)C(=O)O

As usually defined, the IC50 is the midpoint of a concentration-inhibition curve.

T1 sequence (A0ACM8Q262 1-400): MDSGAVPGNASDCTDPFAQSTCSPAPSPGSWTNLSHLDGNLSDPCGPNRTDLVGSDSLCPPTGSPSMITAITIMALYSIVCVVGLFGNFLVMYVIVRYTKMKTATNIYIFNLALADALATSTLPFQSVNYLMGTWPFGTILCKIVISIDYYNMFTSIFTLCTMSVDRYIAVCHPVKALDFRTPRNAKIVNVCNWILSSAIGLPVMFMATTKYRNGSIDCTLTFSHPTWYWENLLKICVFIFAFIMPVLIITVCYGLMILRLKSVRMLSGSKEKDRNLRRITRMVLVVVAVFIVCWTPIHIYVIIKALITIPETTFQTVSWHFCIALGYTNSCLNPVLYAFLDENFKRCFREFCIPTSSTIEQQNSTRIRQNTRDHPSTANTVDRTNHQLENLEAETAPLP

For `CC(C)NCC(O)COc1cccc2ccccc12.Cl` (stereo not drawn) [anaprilinum, reference compound], the myocardial necrosis size in test [1] (comparison medicines at highest therapeutic doses, observation time 12 hours) is 53.80 ± 1.90.

Consider `O=[N+]([O-])OCC(CO[N+](=O)[O-])O[N+](=O)[O-]` [nitroglycerine, reference compound], for which the myocardial necrosis size in test [1] (rat, in vivo) turned out to be 54.04 ± 1.76. In test [1] (rat, in vivo, 0.05 mg/kg), this molecule registered a CPK of 101.1 ± 6.1 units/l, an HF-CPK of 19.8 ± 1.1 units/l and a Lactate of 1.80 ± 0.09 mmol/L.

In the case of `CN1CC[C@]23c4c5ccc(O)c4O[C@H]2[C@@H](O)C=C[C@H]3[C@H]1C5` [Morphine, reference compound], the ED50 in the test with outbreed male mice (Mus musculus, intravenous administration, read-out: ED50 μmol/kg (dose interval)) came out at 18 µmol/kg; in the test with CD-1 male mice (Mus musculus, 0.25 h, intravenous administration, time point of 15 min, read-out: ED50 (jump latency)) it was 2.67 mg/kg.

For “Y[dDab](Ac)G[Phe(4-NO2)]-NH2 [Peptide 4]”, in the test with CD-1 male mice (setting [8]), the “time of maximum analgesic effect” value is 30 min. Further, in the test on CD-1 male mice (i.v.), the “analgesic effect in words” value is “weaker than the effect of the other four peptides tested”. Moreover, the “IS/AAR, level of ischemic damage” value in test [2] (1.0 μg/kg i.v. immediately after removal of the LCAO (start of reperfusion)) is 32.5±2.4%. Further, the “infarct size as % of Area at Risk (IS/AAR)” value in [2] (doses between 0.2 μg/kg and 3.2 μg/kg, 5 min before ischemia (dose-response curve)) is recorded as “smaller than 30%”. Further, the “IS/AAR, % (infarct size as % of area at risk)” value in test [3] (0.01 μg/kg i.v. 5 min before occlusion) stood at 45.1±4.6%; in test [3] (setting [9]), 32.0 ± 3.5%; in [3] (1 μg/kg i.v. 5 min before occlusion) it was 26.0 ±3.5%; in [3] (setting [10]), 32.5 ± 2.5%. Also, the “Relative Reduction of Infarct size, % (Control = 0)” value stood at 25.4% in [3] (setting [9]) and 24.2% in test [3] (setting [10]).

With Y[dK](Ac)G[Phe(4-NO2)]-NH2 [Peptide 2], the “ED50 (jump latency)” value with CD-1 male mice (setting [11]) was 1.7 mg/kg. Moreover, in the test on CD-1 male mice (intravenous, from ED50 at 15 min), the “analgesic activity exceeding that of morphine” value turned out to be 1.5 times.

Take “Tyr-Gly-Gly-Phe-Leu [[Leu^5]-enkephalin, reference compound]”: the “GPI Relative potency, %” value in test [4] was found to be 100%. In addition, in test [5], the GPIrel/MVDrel amounted to 1. In the test with outbreed male mice, the “Duration of analgesic effect at ED60-80” value is on record as 15 min, the “ED50 nmol/animal (dose interval)” value is given as 174 (102-281) nmol/animal and the “Relative analgesic activity morphine = 1” value came out at 0.007. The “MVD Relative potency, %” value in test [6] ([Leu^5]-enkephalin = 100) amounted to 100%. It took 20 ± 1 nM to reach half-maximal inhibition in test [6] (mouse vas deferens, electrical stimulation) (IC50).

Consider “Tyr-D-Orn(Ac-Asn)-Gly-Phe(p-NO2)—NH2 [Peptide 3]”, for which the “delay of analgesic effect” value with CD-1 male mice (setting [8]) came to 15 min. In the test with CD-1 male mice (i.v.), the “analgesic effect in words” value was “practically similar to that of morphine”. Besides, in the test with CD-1 male mice (setting [11]), the “ED50 (jump latency)” value was found to be 2.04 mg/kg.

Consider “Tyr-Gly-Gly-Phe-Met [[Met^5]-enkephalin, reference compound]”, for which, in the test on outbreed male mice, the “Duration of analgesic effect at ED60-80” value was determined as 15 min, the “ED50 nmol/animal (dose interval)” value is listed as 154 (90-261) nmol/animal and the “Relative analgesic activity morphine = 1” value is 0.008.

For “Tyr-D-Orn(Ac-Gly)-Gly-Phe(p-NO2)—NH2 [Peptide 5]”, the “analgesic effect in words” value in the test on CD-1 male mice (i.v.) was “practically similar to that of morphine”. Further, in the test with CD-1 male mice (setting [11]), the “ED50 (jump latency)” value is on record as 1.99 mg/kg.

Consider `O=C(O)CCCO` [Sodium oxybutyrate, reference compound], for which, in [7] (1000.0 mg/kg (highest therapeutic dose) i.p. 1 min before hermetic chamber), the Duration of life is 15.5 ± 0.4 min. The “lifetime increase in comparison with the control experiments” value in test [7] (1000.0 mg/kg i.p.) is 24%.
